Test results as given in article PMC3920258, “Experimental Basis for the High Oral Toxicity of Dinophysistoxin 1: A Comparative Study of DSP” (Toxins, 2014).
Like-named read-outs stand apart in the source and are kept apart here.

Legend:
occludin in Caco-2 cells = test: Confocal microscopy imaging of occludin; type: cell-based, human; conditions: 24 h; for occludin distribution / location: 100 nM toxin; for occludin distribution, positive controls: 0.005% Triton X-100, 100 mM NaBT, 1 μM STP
Protocol: Tight-junction strands are composed of membrane integral proteins, occludin being the best-studied member. We evaluate the integrity of such tight-junctions in Caco-2 cells treated with 100 nM OA, DTX1 and DTX2 for 24 h by labeling occludin. […] (Figure 5C).
Alexa Fluor® 488-labeled anti-occludin mouse monoclonal antibody from Invitrogen (Camarillo, CA, USA) was used for visualizing occludin, as previously described.
Briefly, differentiated Caco-2 monolayers were treated with OA, DTX1, DTX2, vehicle and positive controls of apoptosis and cellular death: staurosporine (STP), sodium butyrate (NaBT) and Triton-X 100. Immediately after treatments, the cells were fixed and incubated with the anti-occludin antibody. Each experimental condition was performed in duplicate. Confocal imaging was then carried out with a 40× oil immersion objective of a Nikon Eclipse TE2000-E inverted microscope attached to the C1 laser confocal system and EZ-C1 V.2.20 software (Nikon Instruments Europe B.V., Amstelveen, Netherlands). An Argon laser was used to excite the Alexa Fluor 488 conjugated antibody.

PP2A = conditions: cited from earlier work; for inhibition equivalency factor (IEF): PP2A
[1] = test system: differentiated Caco-2 monolayers; test: Caco-2 permeability assay with microsphere-based immunoassay quantification; type: in vitro ADME, human; conditions: for transport across the Caco-2 monolayer (apical to basolateral): 50 and 100 nM, 3, 6, 12 and 24 h
Protocol: With the aim of evaluating the transport of OA, DTX1 and DTX2 through the cell monolayer, we performed the permeability assays as described in Section 4.7. Caco-2 cell monolayers were incubated with OA, DTX1 and DTX2 for 3, 6, 12 and 24 h. […] According to the results, almost all the OA and DTX2 remain in the apical side (Figure 6 A,D and C,F). […] Likewise, in the absence of a cell monolayer (shown as no cells in Figure 6), all the toxins easily flow over inserts.
The permeability assay was carried out as previously described. During the assays, cell monolayer integrity was evaluated by measuring TEER at the start and end of the experiment. Once the incubation with the toxins (OA, DTX1 and DTX2) finished (after 3, 6, 12 or 24 h), the medium was collected from both the insert (donor compartment/apical side of the monolayer) and the well (receiver compartment/basolateral side of the monolayer) for toxin quantification purposes. Previously, we confirmed that the toxins easily flow over the naked inserts.
OA, DTX1 and DTX2 samples taken from the inserts/donor compartments and wells/receptor compartments where quantified, as previously described by Fraga et al.. In order to consider the cross-reactivity of the analyzed derivatives of the okadaic acid, DTX-1 and DTX-2, calibration curves were prepared using calibration solutions with CRMs of DTX-1 and DTX-2. Therefore, the quantification of DTX-1 and DTX-2 samples collected from permeability assays were quantified against their respective calibration curves.

[2] = test system: differentiated Caco-2 cells; test: AlamarBlue metabolic activity (viability) assay; type: cell-based, human; conditions: 1-1000 nM toxin, 6-72 h; highest 1000 nM for 72 h
Protocol: Metabolic activity assay: Cytotoxic effects of OA, DTX1 and DTX2 (1, 10, 20, 40, 100, 200, 500 and 1000 nM) in differentiated Caco-2 cells have been evaluated in a time-dependent manner by the AlamarBlue metabolic activity assay. Incubation with 0.01% Triton X-100 has been used as a positive control of death. Data are shown in Figure 2 as the percent of fluorescence vs. control.
The viability of the Caco-2 cells was measured by Alamar Blue assay, as previously described. Briefly, the Caco-2 cells were seeded onto 96-well plates at an initial concentration of 25,000 cells/mL and cultured until differentiation (21 days) with medium renewal every 2–3 days. Subsequently, cells were treated with increasing concentrations of OA, DTX1, DTX2 and Triton X-100 in the presence of AlamarBlue; then, fluorescence was measured at 6, 8, 10, 12, 24, 48 and 72 hours of incubation using a FL600 Microplate Fluorescence Reader from BioTek (Winooski, VT, USA) at an excitation wavelength of 530 nm and an emission wavelength of 590 nm. Control cells were considered as having 100% viability, and the results are expressed as the percentage of the fluorescence of treated cells versus the fluorescence of control ones.

[3] = test system: differentiated Caco-2 monolayers; test: Trans-epithelial electrical resistance (TEER) measurement; type: cell-based, human; conditions: for change in TEER values: 10, 50 and 100 nM, 3, 6, 12 and 24 h
Protocol: We assessed tight junction formation stability through measurements of trans-epithelial electrical resistance (TEER). […] We studied the changes that OA, DTX1 and DTX2 induced in the TEER of the Caco-2 monolayer as a function of time. Differentiated Caco-2 monolayers were incubated with 10, 50 and 100 nM OA, DTX1 and DTX2. TEER was measured immediately before the toxins addition and after 3, 6, 12 and 24 h of incubation with them.
Trans epithelial electric resistance (TEER) was measured across differentiated Caco-2 monolayers, as previously described. The measurements were performed before the treatment with OA, DTX1 and DTX2 (controls), and after each of the incubation times established: 3, 6, 12 and 24 h. Only inserts with TEER higher than 300 Ωcm^2 before the addition of the toxin were used for further testing.

[4] = test system: differentiated Caco-2 monolayers; test: Annexin V-FITC apoptosis detection, confocal imaging; type: cell-based, human; conditions: 24 h; for annexin V-FITC fluorescence (apoptosis): 100 nM toxin; for annexin V-FITC fluorescence (apoptosis / cell death), positive controls: 1 μM STP, 100 mM NaBT, 0.005% Triton X-100
Text: Cell membrane integrity assay: Some fluorescent methods allow a non-destructive evaluation of apoptosis by detecting changes in the structure of cell membranes. Annexin V has a high affinity for phosphatidylserine (PS), a phospholipid component located on the inner surface of the lipid bilayer of the cellular plasma membrane. During early apoptosis processes, this PS migrates to the outer portion, becomes exposed on the surface of the cell and can be detected by binding to annexin V labeled with a fluorescent dye. The annexin V assay was carried out in differentiated Caco-2 monolayers that were treated for 24 h with 100 nM of OA, DTX1, DTX2 or vehicle. Incubation with 0.005% Triton X-100 was used as a positive control of cell death and 1 μM staurosporine (STP) and 100 mM sodium butyrate (NaBT) as inductors of cell apoptosis.
To visualize apoptosis by confocal microscopy in the toxin-treated Caco-2 monolayers, an apoptosis detection kit containing annexin V conjugated with FITC from Immunostep (Salamanca, Spain) was used.
Caco-2 cells were seeded on glass coverslips at an initial concentration of 65 × 10^3 cells/mL and cultured for 21 days until differentiation with medium renewal each 2–3 days. On the 21st day, the cell medium was removed, and the monolayers were treated for 24 h with toxins: OA, DTX1, DTX2, vehicle and positive controls of apoptosis and cellular death (staurosporine (STP), sodium butyrate (NaBT) and Triton-X 100). Immediately after the 24 h of incubation, the medium was removed, and the cells were rinsed 3 times with PBS just before the addition of annexin V-FITC in a proportion of 1:100 diluted in the provided binding buffer. After 15 min of incubation in the dark at room temperature, the cells were rinsed again 3 times with PBS and fixed using paraformaldehyde 2% for 15 min at 4 °C. Finally, another 3 washes with PBS were required prior to mounting the coverslips over microscope glass slides with 10 μL of PBS/Glycerol (1:1) and sealing the edges with nail varnish. Confocal imaging was then carried out with a 40× oil immersion objective of a Nikon Eclipse TE2000-E inverted microscope attached to the C1 laser confocal system and EZ-C1 V.2.20 software (Nikon Instruments Europe B.V., Amstelveen, Netherlands). An argon laser was used to excite the annexin V-FITC conjugated protein (λ excitation = […], λ emission = […]).

mice [5] = conditions: cited from earlier work; for minimum lethal dose: mice, i.p.
Caco-2 monolayers = conditions: cited from earlier work
Caco-2 cells [6] = test system: Caco-2 cells; set-up: method as in PMID 10806372; conditions: 1–2 μM; cited from earlier work
mice [7] = conditions: oral administration to mice; cited from earlier work
mice [8] = conditions: cited from earlier work; for lethal oral dose: mice; for lethal oral dose / mice dead: oral
Caco-2 cells [9] = test system: Caco-2 cells; set-up: method as in PMID 21093526; conditions: after 24 h; cited from earlier work
PP1 = conditions: cited from earlier work
[10] = EFSA, based on mice i.p. toxicity, reference OA

C=C1C(O)C2OC3(CCC(C=CC(C)C4CC(C)=CC5(OC(CC(C)(O)C(=O)O)CCC5O)O4)O3)CCC2OC1C(O)CC(C)C1CCCC2(OCCCC2C)O1 (stereo not shown) [DTX2, dinophysistoxin-2]
occludin distribution / location (occludin in Caco-2 cells): no modifications on the distribution of occludin | toxicity relative to OA (PP2A): equal toxicity | transport across the Caco-2 monolayer (apical to basolateral) [1]: unable to cross the Caco-2 monolayer | fluorescence intensity (percent of viability vs. control) [2]: did not show any decrease in fluorescence intensity | change in TEER values [3]: did not induce any change | annexin V-FITC fluorescence (apoptosis) [4]: Lack of fluorescence | toxicity equivalent factor (TEF) (mice [5]; [10]): 0.6 | toxicity equivalent factor (TEF) (mice [5]; acute intraperitoneal toxicity in mice): 0.6 | minimum lethal dose (mice [5]): 350 μg/kg b.w.

Triton X-100
occludin distribution, positive controls (occludin in Caco-2 cells): redistribution of occludin with adjacent diffuse intracellular staining and a granular appearance | annexin V-FITC fluorescence (apoptosis / cell death), positive controls [4]: heavily damaged cell monolayer with noticeable loss of substrate adhesion and fluorescent green dots

CN[C@@H]1C[C@H]2O[C@@](C)([C@@H]1OC)n1c3ccccc3c3c4c(c5c6ccccc6n2c5c31)C(=O)NC4 [STP, staurosporine]
occludin distribution, positive controls (occludin in Caco-2 cells): redistribution of occludin with adjacent diffuse intracellular staining and a granular appearance | annexin V-FITC fluorescence (apoptosis / cell death), positive controls [4]: evident FITC green fluorescence zones

CCCC(=O)[O-].[Na+] [NaBT, sodium butyrate]
occludin distribution, positive controls (occludin in Caco-2 cells): redistribution of occludin with adjacent diffuse intracellular staining and a granular appearance | annexin V-FITC fluorescence (apoptosis / cell death), positive controls [4]: evident FITC green fluorescence zones

C=C1[C@@H](O)[C@@H]2O[C@]3(CC[C@H](/C=C/[C@@H](C)[C@@H]4CC(C)=C[C@@]5(O[C@H](C[C@@](C)(O)C(=O)O)CC[C@H]5O)O4)O3)CC[C@H]2O[C@@H]1[C@@H](O)C[C@H](C)[C@H]1O[C@@]2(CCCCO2)CC[C@H]1C [OA, okadaic acid]
TEER changes (Caco-2 monolayers; 1 to 2 μM, 30 to 90 min): significant TEER reduction | concentration that decreased the TEER of Caco-2 monolayers (Caco-2 monolayers): ≥ 600 nM | TEER changes (Caco-2 monolayers; differentiated Caco-2 monolayers, up to 200 nM for 24h): absence of TEER changes | occludin distribution / location (occludin in Caco-2 cells): no modifications on the distribution of occludin | cell membrane damage and LDH release (Caco-2 cells [6]): no cell membrane damage nor LHD release | time to repair of damage to the intestinal ultrastructure (mice [7]): ≤ 24 h | transport across the Caco-2 monolayer (apical to basolateral) [1]: unable to cross the Caco-2 monolayer | lethal oral dose (mice [8]; ref 54): 400 μg/kg b.w. | lethal oral dose (mice [8]; ref 55): 880 μg/kg b.w. | mice dead (mice [8]; 1000 μg/kg b.w): 0/5 | mice dead (mice [8]; 2000 μg/kg b.w.): 4/5 | fluorescence intensity (percent of viability vs. control) [2]: did not show any decrease in fluorescence intensity | applied dose found in the basolateral side (Caco-2 cells [9]): 2% | applied dose trapped into Caco-2 cells (Caco-2 cells [9]): 2%–3 | change in TEER values [3]: did not induce any change | annexin V-FITC fluorescence (apoptosis) [4]: Lack of fluorescence | toxicity equivalent factor (TEF) (mice [5]; [10]): 1

C=C1[C@@H](O)[C@@H]2O[C@]3(CC[C@H](/C=C/[C@@H](C)[C@@H]4CC(C)=C[C@@]5(O[C@H](C[C@@](C)(O)C(=O)O)CC[C@H]5O)O4)O3)CC[C@H]2O[C@@H]1[C@@H](O)C[C@H](C)[C@H]1O[C@@]2(CC[C@H]1C)OCCC[C@H]2C [DTX1, dinophysistoxin-1]
occludin distribution / location (occludin in Caco-2 cells): fragmented and less uniform staining of occludin | inhibition equivalency factor (IEF) (PP2A; higher IC50 than OA): 0.6–0.9 | inhibition equivalency factor (IEF) (PP2A; lower IC50 than OA): 1.6–2.4 | dissociation constant, fold lower compared to OA (PP2A; catalytic subunit PP2A): 1.6 fold | amount of toxin in the basolateral side ([1]; 100 nM, 24 h): increase in the amount of toxin in the basolateral side | initial amount recovered from the basolateral side ([1]; 100 nM, 24 h): ~50% | concentration at which toxin significantly crosses the intestinal epithelium ([1]; as stated in abstract): above 100 nM | oral toxicity compared with i.p. injection (mice [8]): only slightly less toxic when administered orally than when given by i.p. injection | lethal oral dose (mice [8]; ref 58): 300 μg/kg b.w. | fluorescence intensity (percent of viability vs. control) [2]: did not show any decrease in fluorescence intensity | change in TEER value ([3]; 50 nM, 24 h): significantly decreased | change in TEER value ([3]; 100 nM, 12 and 24 h): decrease was much more noticeable | TEER values lowered to ([3]; 100 nM, 12 h): 50% | TEER values lowered to ([3]; 100 nM, 24 h): 70% | concentration disrupting the integrity of Caco-2 monolayers ([3]; as stated in abstract): above 50 nM | concentration disrupting the monolayer integrity ([3]; for 12 h and above): > 100 nM | annexin V-FITC fluorescence (apoptosis) [4]: Lack of fluorescence | toxicity equivalent factor (TEF) (mice [5]; [10]): 1 | minimum lethal dose (mice [5]): 160 µg/kg | inhibition equivalency factor (IEF), IC50 OA / IC50 analogue (PP1): 0.4–0.9
